Test results as given in EP0354042A2, “Aminobenzoic-acid derivatives to reduce side effects induced by an administration of immuno-suppressant” (priority 1988, dated 1990).

Experiments:
Jcl:ICR mice = test: Acute toxicity (LD50, Litchfield-Wilcoxon); format: in vivo; settings: observed 7 days; for LD₅₀ Value Intraperitoneal: in physiological saline solution; for LD₅₀ Value Oral: oral by stomach sonde, in distilled water
Protocol: The acute toxicity was studied with Jcl:ICR mice through intraperitoneal route and oral route. For intraperitoneal route, the present substance was dissolved in a physiological saline solution and a predetermined dose of the substance was administered with an injector to the cavity. For oral route, the present substance was dissolved in a distilled water and administered forcibly through a stomach sonde.
After the administration, observation of toxicopathic symptoms of the mice were continued for 7 days and based on time to time death rates of the mice, LD₅₀ values were calculated. Both surviving and dead mice were anatomized and observed certain organs.

Bacillus subtilis M45 = test: Mutagenicity Rec-assay, recombination repair deficient strain; settings: for Growth Inhibited Area M45 - H17: difference between strains
Protocol: (§1) First, mutagenecity was studied with Rec-assay. […] The present substance was dissolved with sterlized water, 0.05 ml of the solution was absorbed by a round filter paper having a diameter of 8 mm and immediately the filter paper was laid on the medium (B-II agar) in a manner to cover each of the satrt point of the streak. Then, the mdium was cultured for 16 hours at a temperature of 37°C and measured growth inhibited area. Kanamycin was used as a negative control and mitomycin as a positive control.

Bacillus subtilis H17 = test: Mutagenicity Rec-assay, recombination repair proficient strain
Protocol: as §1

[1] = tested on: TA100 of Salmonella typhimurium; test: Reversion assay (reversion colony test) TA100; format: cell-based
Protocol: (§2) In addition, a reversion assay was performed using TA98 and TA100 of Salmonella typhimurium (both are histidine-requiring bacteria).
(§3) 10% by volume of 0.5 mM bithion solution containing 0.5 mM histidine was added to a soft agar solution (prepared with 6g of NaCl, 6g of agar and 1,000 ml of distilled water). Then, 0.1 ml of a solution containing 1 x 10⁸ of the bacteria and 0.1 ml of a solution of the present substance were added to 2 ml of the soft agar solution, mixed well and obtained soft agar solution was multilayered on a minimal agar medium. The medium layered was cultured at 37°C for 2 days and number of reversion colonies was counted. Furylfuramide (AF2) was used as a positive control.

[2] = tested on: TA98 of Salmonella typhimurium; test: Reversion assay (reversion colony test) TA98; format: cell-based
Protocol: as §2, §3

[3] = Body weight of rats given CsA with the present substance; format: in vivo, Wistar male rats; settings: at completion of the test; CsA 25 mg/kg/day i.p. 3 weeks plus present substance 300 mg/kg/day orally
Protocol: (§4) Various clearance tests and a saccharide tolerance test were performed after completion of the administrations. Then, after sacrificing the rats, their blood was taken for serum biochemical and general blood tests.

Wistar male rats [4] = test: Kidney function (inulin clearance, serum creatinine) of rats given CsA with the present substance; format: in vivo; settings: CsA 25 mg/kg/day i.p. 3 weeks plus present substance 300 mg/kg/day orally
Protocol: as §4

Wistar male rats [5] = test: Saccharide tolerance test (pancreas function) of rats given CsA with the present substance; format: in vivo; settings: CsA 25 mg/kg/day i.p. 3 weeks plus present substance 300 mg/kg/day orally
Protocol: as §4

Wistar male rats [6] = test: Serum biochemical test, total bilirubin (liver function) of rats given CsA with the present substance; format: in vivo; settings: CsA 25 mg/kg/day i.p. 3 weeks plus present substance 300 mg/kg/day orally
Protocol: as §4

human lymphocyte = test: Mixed lymphocyte culture, 3H-thymidine uptake (proliferation of lymphocytes); format: cell-based; settings: CsA 0.1 µg/ml plus present substance 100 µg/ml, cultured 6 days;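 further: percent suppression of proliferation derived from uptake with CsA alone versus CsA plus substance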
Protocol: A mixture of 50 µl of human lymphocyte (1.6 x 10⁶/ml) with 50 µl of the lymphocytes treated with mitomycin C (MMC) (1.7 x 10⁶/ml) was cultured for 6 days and an uptake of ³H-thymidine, an index of proliferation of lymphocyte, was studied. The medium used for culture comprised bovine fetal serum (10% in quantity) and RPMI 1640 (90% in quantity). […] From the calculated ratio, the effects of the present substance on immuno function were studied.

[7] = 5,000 µg/disk, 16 hours at 37°C
[8] = 5,000 µg/disk, 37°C for 2 days, Drug-free Control 149
[9] = 5,000 µg/disk, 37°C for 2 days, Drug-free Control 13

Row | SMILES | LD₅₀ Value Intraperitoneal (Jcl:ICR mice) | LD₅₀ Value Oral (Jcl:ICR mice) | Growth Inhibited Area M45 (Bacillus subtilis M45; 500 µg/disk, 16 hours at 37°C) | Growth Inhibited Area M45 - H17 (Bacillus subtilis M45; 500 µg/disk) | Growth Inhibited Area M45 (Bacillus subtilis M45; [7]) | Growth Inhibited Area M45 - H17 (Bacillus subtilis M45; 5,000 µg/disk) | Growth Inhibited Area H17 (Bacillus subtilis H17; 500 µg/disk, 16 hours at 37°C) | Growth Inhibited Area H17 (Bacillus subtilis H17; [7]) | No. of Reversion Colony TA100 [1, 8] | No. of Reversion Colony TA98 [2, 9] | Body Weight [3] | Kidney Function Inulin Clearance (Wistar male rats [4]) | Kidney Function Serum Creatinine (Wistar male rats [4]) | Blood sugar value measured 10 minutes after the test (Wistar male rats [5]) | Insuline Value 10 Min.After The Test (Wistar male rats [5]) | Insuline Value Before The Test (Wistar male rats [5]) | TBI (seerum total bilirubin value) (Wistar male rats [6]) | Depressing Ratio (human lymphocyte) | further results
1 | O=C(O)c1ccc(NC2OC[C@H](O)[C@H](O)[C@H]2O)cc1 (stereo partly drawn) [Compound 2, p-Aminobenzoic acid-N-L-arabinoside] | 10220 mg/kg | 10800 mg/kg | 0 mm | 0 mm | 0 mm | 0 mm | 0 mm | 0 mm | 51 n/plate | 3 n/plate | 220 g | 1.81 mL/min | 0.65 mg/dL | 588 mg/dL | 6.12 mµ/ml | 4.02 mµ/ml | 0.35 mg/dL | 26% | 
2 | O=C([O-])c1ccccc1NC1OCC(O)C(O)C1O.[Na+] [Compound 4, o-Aminobenzoic acid-N-L-arabinoside] | 7480 mg/kg | 6350 mg/kg | 0 mm | 0 mm | 8 mm | 4 mm | 0 mm | 4 mm | 59 n/plate | 4 n/plate | 218 g | 1.78 mL/min | 0.67 mg/dL | 591 mg/dL | 6.22 mµ/ml | 3.89 mµ/ml | 0.37 mg/dL | 26% | 
3 | O=C(O)c1ccc(NC2OC[C@@H](O)[C@H](O)[C@H]2O)cc1 (stereo partly drawn) [Compound 6, p-Aminobenzoic acid-N-D-xyloside] | 11040 mg/kg | 11750 mg/kg | 0 mm | 0 mm | 0 mm | 0 mm | 0 mm | 0 mm | 58 n/plate | 4 n/plate | 208 g | 1.70 mL/min | 0.66 mg/dL | 598 mg/dL | 6.20 mµ/ml | 4.28 mµ/ml | 0.35 mg/dL | 26% | 
4 | O=C(O)c1ccccc1NC1OC[C@@H](O)[C@H](O)[C@H]1O (stereo partly drawn) [Compound 8, o-Aminobenzoic acid-N-D-xyloside] | 9270 mg/kg | 6350 mg/kg | 0 mm | 0 mm | 7 mm | 4 mm | 0 mm | 3 mm | 166 n/plate | 4 n/plate | 211 g | 1.72 mL/min | 0.65 mg/dL | 605 mg/dL | 6.18 mµ/ml | 4.21 mµ/ml | 0.38 mg/dL | 27% | 
5 | O=C(O)c1ccc(NC2O[C@H](CO)[C@@H](O)[C@H](O)[C@H]2O)cc1 (stereo partly drawn) [Compound 10, p-Aminobenzoic acid-N-D-glucoside] | > 15000 mg/kg | > 15000 mg/kg | 0 mm | 0 mm | 0 mm | 0 mm | 0 mm | 0 mm | 104 n/plate | 11 n/plate | 235 g | 1.85 mL/min | 0.65 mg/dL | 612 mg/dL | 6.02 mµ/ml | 4.05 mµ/ml | 0.36 mg/dL | 26% | 
6 | O=C([O-])c1ccccc1NC1O[C@H](CO)[C@@H](O)[C@H](O)[C@H]1O.[Na+] (stereo partly drawn) [Compound 12, o-Aminobenzoic acid-N-D-glucoside] | 13380 mg/kg | 8960 mg/kg | 0 mm | 0 mm | 5 mm | 3 mm | 0 mm | 2 mm | 151 n/plate | 5 n/plate | 232 g | 1.88 mL/min | 0.64 mg/dL | 589 mg/dL | 6.12 mµ/ml | 4.11 mµ/ml | 0.36 mg/dL | 27% | 
7 | NC(=O)/C(=C\c1ccc([N+](=O)[O-])o1)c1ccco1 [Furylfuramide (AF2), Furylfuramide, reference compound] |  |  |  |  |  |  |  |  |  |  |  |  |  |  |  |  |  |  | No. of Reversion Colony TA100 ([1]; 0.1 µg/disk, positive control): 911 n/plate; No. of Reversion Colony TA98 ([2]; 0.1 µg/disk, positive control): 167 n/plate
8 | NC[C@H]1O[C@H](O[C@H]2[C@H](O)[C@@H](O[C@H]3O[C@H](CO)[C@@H](O)[C@H](N)[C@H]3O)[C@H](N)C[C@@H]2N)[C@H](O)[C@@H](O)[C@@H]1O [Kanamycin, reference compound] |  |  |  |  |  |  |  |  |  |  |  |  |  |  |  |  |  |  | Growth Inhibited Area M45 (Bacillus subtilis M45; 10 µg/disk, negative control): 5 mm; Growth Inhibited Area M45 - H17 (Bacillus subtilis M45; 10 µg/disk, negative control): 1 mm; Growth Inhibited Area H17 (Bacillus subtilis H17; Bacillus subtilis, 16 h, 10 µg/disk, pH 7): 4 mm
